System: sialylation of core 1 O-linked glycans of plasma glycoproteins (T/ST ratio)
Assay: Plasma T/ST ratio (T-antigen to monosialylated ST-antigen) by LC-MS/MS in treated GNE myopathy patients
Format: in vivo, human
Experimental: The quantification of the T/ST ratio was carried out using the O-glycan quantification methods disclosed in Liu et al. Mol Genet Metab 106, 442-454 (2012). Briefly, O-linked glycans from human serum or plasma total glycoproteins were released by sodium hydroxide with sodium borohydrate and desalted by ion-exchange column and then permethylated before the quantity of T-antigen and monosialyl ST-antigen was measured using LC-MS/MS method. Plasma samples from 40 normal controls were used to establish the normal range for the T/ST ratio at <0.056. A cut-off of 0.06 was used to diagnose hyposialylation of O-linked protein glycosylation in human plasma or serum.
O-glycans were released from plasma glycoproteins and prepared for analysis essentially as described by Carlson (J Biol Chem 243: 616-626, 1968; Liu et al. Mol Genet Metab 106, 442-454 (2012)), with modifications as described. An internal standard (1250 pmol raffinose in 5 μL) was added to 10 μL of plasma and 65 μl water for a final volume of 100 μL. Next, 100 μL of freshly prepared 2M […] in 0.1M sodium hydroxide was added to denature the serum proteins and release the O-glycans; the mixture was incubated at 45° C. for 16 hours to ensure complete reaction. The reaction was neutralized by drop wise addition of 1.6 mL of a 0.25M acetic acid-methanol solution, and the O-glycans were extracted in methanol. […]

SMILES | T/ST ratio after sialic acid treatment (one GNE myopathy patient (NH00016), sialic acid received one month before the test, cut-off 0.06) | T/ST ratio range under ManNAc (one GNE myopathy patient (SIA79) self-administering off-label ManNAc, abnormal range 0.06 or higher)
CC(=O)N[C@@H]1C(O)C[C@](O)(C(=O)O)OC1[C@H](O)[C@H](O)CO (stereo in doubt) [sialic acid, N-acetylneuraminic acid] | 0.05 | –
CC(=O)N[C@H]1[C@@H](O)[C@H](O)[C@@H](CO)O[C@H]1O [ManNAc, N-acetyl-D-mannosamine] | – | normal range

From US9341619B2, “Hyposialylation disorders” (THE UNITED STATES OF AMERICA, as representated by the …, priority 2013, dated 2016)
